The values that follow come from patent EP0490581B1, “Cosmetic composition” (UNILEVER PLC, priority 1990, dated 1992).

The test system of this assay is isolated human hair follicles. Description: in vitro hair follicle growth test (elongation of isolated hair follicles in culture medium). It is filed as cell-based. How it is done:
The effect of compounds on hair growth was assessed using an in vitro test which measures the elongation of isolated human hair follicles in a culture medium.
This test includes the important step of isolating hair follicles having an undamaged hair bulb from skin, preferably from human skin, by microdissection.
The critical step of separating the hair follicle with intact undamaged hair bulb from the subcutaneous fatty tissue in which it is situated accordingly involves severing the hair shaft of the follicle at a point below the epidermis of skin surface, so as to leave the hair bulb intact and undamaged while still bearing a portion of the hair shaft.
Preferably, the hair shaft of the follicle is severed at the dermal-subcutaneous fat interface.
Any suitable cutting instrument can be employed to sever the hair shaft in this manner, but a keratotome or a scalpel are preferred.
The hair bulb with a hair shaft stump attached is then isolated from the skin by mechanically separating the hair from loosely adhering subcutaneous fat which normally surrounds the hair bulb. This is achieved after the dermis or upper layer of the skin has been separated and removed, to avoid damaging the hair bulb as it is pulled away.
The hair bulb together with hair shaft stump attached, is then transferred in an otherwise undamaged and fully functioning, viable state to a nutrient medium.
The hair follicles isolated by the technique described herein are transferred to a suitable culture medium for subsequent testing of substances that can then influence their future development.
The procedure now to be described represents a preferred method of culture and testing of hair growth.
In accordance with the preferred method of culture, isolated hair follicles are maintained in 500µl of Williams E medium, either with or without a test hair growth substance, at 37°C in an atmosphere of 5% CO₂ + 95% air in individual wells of a 24 multiwell dish (Corning), which permits detailed measurements to be made of the length of individual hair follicles.
Williams E medium is available from FLOW Laboratory under Catalogue No. 12-502. The formula of Williams E medium is described by Williams GM, et al., in Experimental Cell Research 69 (1971) on page 106.
Hair shaft length measurements can be made on these follicles, using a Nikon Diaphot inverted binocular or similar microscope with eye piece measuring graticules, […], during which time the follicles will signficiantly increase in length in response to a hair growth stimulant.
The response of an isolated hair follicle to a test substance, can accordingly be assessed by mesuring the increase in length, if any, in the presence of a test substance against a control. […]

As for `CC(O)CC(=O)O` (stereo not shown) [Na 3-hydroxybutyrate], where the note is “144 h, 1 mM in Williams E medium supplemented with glucose (50mM), relative to a control value of 1.0, mean of 5 follicles from each of 5 human subjects (25 follicles), read-out: Hair follicle growth after 6 days”, the activity at 1000 µM turned out to be 280%. With `CCCCCCCCCCCCCCCC(=O)O` [Na palmitate], the activity at 500 µM (144 h, 0.5mM in Williams E medium supplemented with glucose (50mM), relative to a control value of 1.0, mean of 5 follicles from each of 5 human subjects (25 follicles), read-out: Hair follicle growth after 6 days) is 180%.

As to `NC(=O)CC[C@H](N)C(=O)O` [Glutamine, glutamine], the activity at 2000 µM (144 h, 2mM in Williams E medium supplemented with glucose (50mM), relative to a control value of 1.0, mean of 5 follicles from each of 5 human subjects (25 follicles), read-out: Hair follicle growth after 6 days) came to 400%. The “hair growth, as compared with the control” value (summary in words of the table's results, Williams E medium supplemented with glucose (50mM)) was “most effective”.
